Assay results taken from patent US20200291018A1, “TAM KINASE INHIBITORS” (SYROS PHARMACEUTICALS, INC., priority 2017, published 2020).

Assays:
AXL = molecular target: T1, AXL (Homo sapiens, UniProt P30530); assay: TR-FRET kinase activity assay, AXL; format: biochemical; settings: ATP at Km, 60 minutes
T1 sequence (P30530 26-894): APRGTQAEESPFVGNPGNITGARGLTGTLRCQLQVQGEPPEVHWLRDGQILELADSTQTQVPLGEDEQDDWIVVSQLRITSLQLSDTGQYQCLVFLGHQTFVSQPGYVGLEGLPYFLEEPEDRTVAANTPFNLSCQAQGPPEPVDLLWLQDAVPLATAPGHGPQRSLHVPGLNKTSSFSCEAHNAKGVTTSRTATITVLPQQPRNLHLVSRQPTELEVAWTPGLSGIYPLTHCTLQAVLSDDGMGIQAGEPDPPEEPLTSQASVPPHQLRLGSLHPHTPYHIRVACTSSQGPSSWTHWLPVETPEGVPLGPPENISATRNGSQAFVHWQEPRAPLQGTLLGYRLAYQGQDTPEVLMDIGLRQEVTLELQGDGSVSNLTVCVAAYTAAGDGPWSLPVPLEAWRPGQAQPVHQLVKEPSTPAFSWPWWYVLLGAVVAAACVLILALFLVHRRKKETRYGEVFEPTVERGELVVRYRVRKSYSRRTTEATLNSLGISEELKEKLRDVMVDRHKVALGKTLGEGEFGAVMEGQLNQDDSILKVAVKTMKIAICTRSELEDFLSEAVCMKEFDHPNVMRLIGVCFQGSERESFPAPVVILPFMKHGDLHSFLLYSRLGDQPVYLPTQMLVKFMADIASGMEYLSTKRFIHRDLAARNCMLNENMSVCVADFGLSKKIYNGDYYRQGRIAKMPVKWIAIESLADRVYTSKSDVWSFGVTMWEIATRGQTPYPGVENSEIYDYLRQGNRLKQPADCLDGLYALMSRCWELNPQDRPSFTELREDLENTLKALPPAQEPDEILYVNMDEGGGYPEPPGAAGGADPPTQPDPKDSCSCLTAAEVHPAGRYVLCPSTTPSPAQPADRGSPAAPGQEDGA
Outline: (§1)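 Buffer 50 mM HEPES pH 7.5/10 mM MgCl2/1 mM EGTA/0.01% Brij 35/1 mM DTT, RT. Km ATP per kinase, labeled peptide, 60 min; 12.5 mM EDTA stop; Eu-Ab 30 min dark; TR-FRET → IC50.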

MERTK = molecular target: T2, MERTK (Homo sapiens, UniProt Q12866); assay: TR-FRET kinase activity assay, MERTK; format: biochemical; settings: for IC50: TR-FRET activity assay, ATP at Km, 60 minutes, read-out: Mer IC50; for Mer/Flt3 ratio (FLT3 IC50/Mer IC50): ratio calculated as FLT3 IC50/Mer IC50
T2 sequence (Q12866 21-999): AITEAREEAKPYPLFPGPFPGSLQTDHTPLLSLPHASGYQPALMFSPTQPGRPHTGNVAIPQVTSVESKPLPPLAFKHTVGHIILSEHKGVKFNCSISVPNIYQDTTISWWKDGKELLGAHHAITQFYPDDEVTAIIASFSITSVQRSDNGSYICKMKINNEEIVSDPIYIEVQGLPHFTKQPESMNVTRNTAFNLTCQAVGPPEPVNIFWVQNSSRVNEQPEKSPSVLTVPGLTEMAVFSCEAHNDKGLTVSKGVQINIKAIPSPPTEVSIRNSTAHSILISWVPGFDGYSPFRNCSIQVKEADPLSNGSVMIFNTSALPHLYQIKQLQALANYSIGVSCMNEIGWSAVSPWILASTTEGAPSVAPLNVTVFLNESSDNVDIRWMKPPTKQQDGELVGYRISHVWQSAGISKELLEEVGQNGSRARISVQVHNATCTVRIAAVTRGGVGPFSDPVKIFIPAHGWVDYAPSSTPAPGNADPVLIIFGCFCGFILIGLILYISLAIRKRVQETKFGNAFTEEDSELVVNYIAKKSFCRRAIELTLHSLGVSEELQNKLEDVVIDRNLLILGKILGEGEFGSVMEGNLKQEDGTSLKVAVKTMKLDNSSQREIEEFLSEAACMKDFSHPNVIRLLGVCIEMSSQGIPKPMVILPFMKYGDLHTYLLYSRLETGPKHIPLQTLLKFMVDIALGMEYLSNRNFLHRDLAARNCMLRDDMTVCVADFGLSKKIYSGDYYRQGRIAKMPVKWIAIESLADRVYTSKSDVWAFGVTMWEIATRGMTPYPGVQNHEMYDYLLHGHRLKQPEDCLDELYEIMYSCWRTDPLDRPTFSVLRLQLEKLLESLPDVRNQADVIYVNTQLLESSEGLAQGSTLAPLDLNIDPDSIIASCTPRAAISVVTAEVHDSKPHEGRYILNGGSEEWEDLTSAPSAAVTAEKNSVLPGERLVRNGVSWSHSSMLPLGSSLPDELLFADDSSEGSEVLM
Outline: as §1

Row | Structure (SMILES) | IC50 (AXL) | IC50 (MERTK) | Mer/Flt3 ratio (FLT3 IC50/Mer IC50) (MERTK)
1 | COC[C@H](C)Nc1ncc2c(OC3CCN(S(C)(=O)=O)CC3)ncc([C@H]3CC[C@H](O)CC3)c2n1 [Compound 289] | 0.1 to 1 µM | ≤ 0.1 µM | +++ (a ratio of >100)
2 | CC[C@H](C)Nc1ncc2c(O[C@H]3CC[C@](C)(O)CC3)ncc([C@H]3CC[C@H](O)CC3)c2n1 [Compound 287] | 0.1 to 1 µM | ≤ 0.1 µM | ++ (a ratio of between 10 and 100)
3 | COC[C@H](C)Nc1ncc2c(OC3CCOCC3)ncc([C@H]3CC[C@@](C)(O)CC3)c2n1 [Compound 294] | 1 to 10 µM | ≤ 0.1 µM | +++ (a ratio of >100)
4 | CC1(Nc2ncc3c(OC4CCNCC4)ncc([C@H]4CC[C@H](O)CC4)c3n2)CC1 [Compound 291] | 0.1 to 1 µM | ≤ 0.1 µM | +++ (a ratio of >100)
5 | COC[C@H](C)Nc1ncc2c(O[C@H]3CCNCC3(F)F)ncc([C@H]3CC[C@H](O)CC3)c2n1 [Compound 302] | 1 to 10 µM | 0.1 to 1 µM | ++ (a ratio of between 10 and 100)
6 | COC[C@H](C)Nc1ncc2c(OC3CCOCC3)ncc(-c3ccc(N4CCN(C)CC4)cc3)c2n1 [Compound 279] | 1 to 10 µM | 0.1 to 1 µM | ++ (a ratio of between 10 and 100)
7 | CN1CC(Nc2ncc3c(OC4CCOCC4)ncc([C@H]4CC[C@H](O)CC4)c3n2)CC1=O (stereo partly drawn) [Compound 282] | 1 to 10 µM | 1 to 10 µM | ++ (a ratio of between 10 and 100)
8 | COC[C@H](C)Nc1ncc2c(O[C@H]3C[C@H](O)C3)ncc([C@H]3CC[C@H](O)CC3)c2n1 [Compound 295] | 0.1 to 1 µM | ≤ 0.1 µM | +++ (a ratio of >100)
9 | CC[C@H](C)Nc1ncc2c(=O)n([C@H]3CC[C@H](N)CC3)cc([C@H]3CC[C@H](O)CC3)c2n1 [Compound 290] | 0.1 to 1 µM | ≤ 0.1 µM | +++ (a ratio of >100)
10 | COCC[C@H](C)Nc1ncc2c(OC3CCOCC3)ncc([C@H]3CC[C@H](O)CC3)c2n1 [Compound 312] | 1 to 10 µM | ≤ 0.1 µM | +++ (a ratio of >100)
11 | COC[C@H](C)Nc1ncc2c(OC3CCOCC3)ncc([C@H]3CC[C@](C)(O)CC3)c2n1 [Compound 293] | 0.1 to 1 µM | ≤ 0.1 µM | +++ (a ratio of >100)
12 | COC[C@H](C)Nc1ncc2c(O[C@H]3C[C@@H](O)C3)ncc([C@H]3CC[C@H](O)CC3)c2n1 [Compound 296] | 0.1 to 1 µM | ≤ 0.1 µM | +++ (a ratio of >100)
13 | CCOC[C@H](C)Nc1ncc2c(OC3CCOCC3)ncc([C@H]3CC[C@H](O)CC3)c2n1 [Compound 281] | 1 to 10 µM | ≤ 0.1 µM | +++ (a ratio of >100)
14 | COC[C@H](C)Nc1ncc2c(OC3CCOCC3)ncc(-c3cccc(S(=O)(=O)N(C)C)c3)c2n1 [Compound 307, (S)-3-(2-((1-methoxypropan-2-yl)amino)-5-((tetrahydro-2H-pyran-4-yl)oxy)pyrido[4,3-d]pyrimidin-8-yl)-N,N-dimethylbenzenesulfonamide] | 1 to 10 µM | ≤ 0.1 µM | +++ (a ratio of >100)
15 | COC[C@H](C)Nc1ncc2c(C)ncc([C@H]3CC[C@H](O)CC3)c2n1 [Compound 303] | 0.1 to 1 µM | ≤ 0.1 µM | +++ (a ratio of >100)
16 | COC[C@H](C)Nc1ncc2c(OC3CCOCC3)ncc(-c3ccc(C4CCN(C)CC4)cc3)c2n1 [Compound 280] | 0.1 to 1 µM | ≤ 0.1 µM | ++ (a ratio of between 10 and 100)

Further lines, results first:

Row | IC50 (AXL) | IC50 (MERTK) | Mer/Flt3 ratio (FLT3 IC50/Mer IC50) (MERTK) | Structure (SMILES)
17 | 0.1 to 1 µM | ≤ 0.1 µM | +++ (a ratio of >100) | CN(C)S(=O)(=O)c1cccc(-c2cnc(OC3CCOCC3)c3cnc(NC4(C)CC4)nc23)c1 [Compound 322]
18 | 0.1 to 1 µM | ≤ 0.1 µM | +++ (a ratio of >100) | COC[C@H](C)Nc1ncc2c(OC3CCOCC3)ncc(-c3ccc(CC#N)cc3)c2n1 [Compound 319]
19 | 0.1 to 1 µM | ≤ 0.1 µM | +++ (a ratio of >100) | C[C@@H](CC(F)(F)F)Nc1ncc2c(OC3CCN(C)CC3)ncc([C@H]3CC[C@H](O)CC3)c2n1 [Compound 352]
20 | 1 to 10 µM | 0.1 to 1 µM | ++ (a ratio of between 10 and 100) | COC[C@H](C)Nc1ncc2c(OC3CCOCC3)ncc(-c3cccc(C(N)=O)c3)c2n1 [Compound 325]
21 | 1 to 10 µM | ≤ 0.1 µM | ++ (a ratio of between 10 and 100) | COC[C@H](C)Nc1ncc2c(OC3CCOCC3)ncc(-c3cnn([C@H]4CCN(C)C4)c3)c2n1 [Compound 334]
22 | 1 to 10 µM | ≤ 0.1 µM | +++ (a ratio of >100) | CNS(=O)(=O)N[C@H]1CC[C@H](c2cnc(OC3CCOCC3)c3cnc(N[C@@H](C)COC)nc32)CC1 [Compound 317]
23 | 1 to 10 µM | ≤ 0.1 µM | +++ (a ratio of >100) | C[C@H](CC(F)(F)F)Nc1ncc2c(OC3CCOCC3)ncc([C@H]3CC[C@H](O)CC3)c2n1 [Compound 338]
24 | 1 to 10 µM | ≤ 0.1 µM | +++ (a ratio of >100) | CNC(=O)N[C@H]1CC[C@H](c2cnc(OC3CCOCC3)c3cnc(N[C@@H](C)COC)nc32)CC1 [Compound 340]
25 | 0.1 to 1 µM | ≤ 0.1 µM | +++ (a ratio of >100) | COC[C@H](C)Nc1ncc2c(C3CC3)ncc([C@H]3CC[C@H](O)CC3)c2n1 [Compound 349]
26 | 1 to 10 µM | ≤ 0.1 µM | +++ (a ratio of >100) | COC[C@H](C)Nc1ncc2c(OC3CCOCC3)ncc([C@H]3CC[C@H](NC(C)=O)CC3)c2n1 [Compound 315]
27 | 0.1 to 1 µM | ≤ 0.1 µM | +++ (a ratio of >100) | COC[C@H](C)Nc1ncc2c(OC3CCN(c4ncccn4)CC3)ncc([C@H]3CC[C@H](O)CC3)c2n1 [Compound 344]
28 | 1 to 10 µM | 0.1 to 1 µM | ++ (a ratio of between 10 and 100) | COC[C@H](C)Nc1ncc2c(OC3CCOCC3)ncc([C@H]3CC[C@](O)(C(F)(F)F)CC3)c2n1 [Compound 330]
29 | 1 to 10 µM | 0.1 to 1 µM | ++ (a ratio of between 10 and 100) | CNC(=O)N1CCC(c2cnc(OC3CCOCC3)c3cnc(N[C@@H](C)COC)nc23)CC1 [Compound 345]
30 | ≤ 0.1 µM | ≤ 0.1 µM | +++ (a ratio of >100) | CC[C@H](C)Nc1ncc2c(O[C@H]3CC[C@H](N)CC3)ncc([C@H]3CC[C@H](O)CC3)c2n1 [Compound 321]
